Where two headings read alike, the source gives them in different places.
Assays:
JAK2 = target: T1, JAK2 (Homo sapiens, UniProt O60674); experiment: Recombinant Human JAK2 Kinase Assay (TRF); format: biochemical; settings: read-out: JAK2 Potency
T1 construct: host or cells: baculovirus expression system
Outline: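 Baculovirus-expressed JAK2 (15 ng/ml) phosphorylated a biotinylated 15-mer peptide captured on Neutravidin-coated plates, in 20 mM HEPES pH 7.2 with 0.2 μM ATP, 1 mM MnCl2, 0.1% BSA and 2.5% DMSO. Reaction ran 20 min at room temperature; phosphopeptide was detected by time-resolved fluorescence with Eu-N1-labelled PY100 antibody.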

ALK = target: T2, ALK (Homo sapiens, UniProt Q9UM73); experiment: ALK Kinase Assay (ELISA/TRF, PLC-γ substrate); format: biochemical; settings: read-out: ALK Potency
T2 construct: host or cells: baculovirus expression system
Outline: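 PLC-γ substrate coated at 10 μg/mL in TBS; reaction started with 30 ng/ml ALK, run 15 min at 37° C. Phosphoproduct detected by TRF with Eu-N1-labeled PT66 anti-phosphotyrosine antibody. IC50 from sigmoidal variable-slope fit of percent inhibition versus log concentration.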

[1] = JAK2 kinase inhibition, 0.2 μM ATP
[2] = ALK kinase inhibition, 1 μM ATP

T1 sequence (O60674 whole entry): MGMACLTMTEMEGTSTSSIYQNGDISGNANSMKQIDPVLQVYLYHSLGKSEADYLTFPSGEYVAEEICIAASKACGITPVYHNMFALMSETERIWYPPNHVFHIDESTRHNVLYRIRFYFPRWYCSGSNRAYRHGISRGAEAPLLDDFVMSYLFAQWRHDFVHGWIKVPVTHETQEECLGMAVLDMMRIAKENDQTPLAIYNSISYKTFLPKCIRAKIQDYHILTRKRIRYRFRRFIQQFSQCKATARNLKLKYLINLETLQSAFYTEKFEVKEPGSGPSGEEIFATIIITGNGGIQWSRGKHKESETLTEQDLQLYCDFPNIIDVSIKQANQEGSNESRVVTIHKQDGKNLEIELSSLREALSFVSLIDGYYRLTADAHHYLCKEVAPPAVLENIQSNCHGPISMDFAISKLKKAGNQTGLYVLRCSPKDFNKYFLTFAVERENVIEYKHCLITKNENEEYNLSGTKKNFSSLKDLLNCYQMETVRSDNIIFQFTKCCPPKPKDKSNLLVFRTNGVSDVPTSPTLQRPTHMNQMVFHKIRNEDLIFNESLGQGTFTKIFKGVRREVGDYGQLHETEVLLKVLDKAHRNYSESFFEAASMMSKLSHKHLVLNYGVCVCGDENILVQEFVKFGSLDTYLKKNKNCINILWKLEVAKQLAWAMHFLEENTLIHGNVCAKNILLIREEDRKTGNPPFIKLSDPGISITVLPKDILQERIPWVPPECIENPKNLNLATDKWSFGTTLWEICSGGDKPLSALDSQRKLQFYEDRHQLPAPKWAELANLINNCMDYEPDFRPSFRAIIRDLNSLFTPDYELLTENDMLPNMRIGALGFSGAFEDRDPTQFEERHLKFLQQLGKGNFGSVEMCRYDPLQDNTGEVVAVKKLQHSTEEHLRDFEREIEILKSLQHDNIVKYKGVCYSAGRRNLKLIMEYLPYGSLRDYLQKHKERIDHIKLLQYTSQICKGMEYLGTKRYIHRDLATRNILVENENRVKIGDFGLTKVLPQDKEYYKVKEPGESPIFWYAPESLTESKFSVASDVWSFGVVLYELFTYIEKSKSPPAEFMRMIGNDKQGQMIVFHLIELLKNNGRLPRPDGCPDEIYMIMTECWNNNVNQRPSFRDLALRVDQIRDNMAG
T2 sequence (Q9UM73 19-1620): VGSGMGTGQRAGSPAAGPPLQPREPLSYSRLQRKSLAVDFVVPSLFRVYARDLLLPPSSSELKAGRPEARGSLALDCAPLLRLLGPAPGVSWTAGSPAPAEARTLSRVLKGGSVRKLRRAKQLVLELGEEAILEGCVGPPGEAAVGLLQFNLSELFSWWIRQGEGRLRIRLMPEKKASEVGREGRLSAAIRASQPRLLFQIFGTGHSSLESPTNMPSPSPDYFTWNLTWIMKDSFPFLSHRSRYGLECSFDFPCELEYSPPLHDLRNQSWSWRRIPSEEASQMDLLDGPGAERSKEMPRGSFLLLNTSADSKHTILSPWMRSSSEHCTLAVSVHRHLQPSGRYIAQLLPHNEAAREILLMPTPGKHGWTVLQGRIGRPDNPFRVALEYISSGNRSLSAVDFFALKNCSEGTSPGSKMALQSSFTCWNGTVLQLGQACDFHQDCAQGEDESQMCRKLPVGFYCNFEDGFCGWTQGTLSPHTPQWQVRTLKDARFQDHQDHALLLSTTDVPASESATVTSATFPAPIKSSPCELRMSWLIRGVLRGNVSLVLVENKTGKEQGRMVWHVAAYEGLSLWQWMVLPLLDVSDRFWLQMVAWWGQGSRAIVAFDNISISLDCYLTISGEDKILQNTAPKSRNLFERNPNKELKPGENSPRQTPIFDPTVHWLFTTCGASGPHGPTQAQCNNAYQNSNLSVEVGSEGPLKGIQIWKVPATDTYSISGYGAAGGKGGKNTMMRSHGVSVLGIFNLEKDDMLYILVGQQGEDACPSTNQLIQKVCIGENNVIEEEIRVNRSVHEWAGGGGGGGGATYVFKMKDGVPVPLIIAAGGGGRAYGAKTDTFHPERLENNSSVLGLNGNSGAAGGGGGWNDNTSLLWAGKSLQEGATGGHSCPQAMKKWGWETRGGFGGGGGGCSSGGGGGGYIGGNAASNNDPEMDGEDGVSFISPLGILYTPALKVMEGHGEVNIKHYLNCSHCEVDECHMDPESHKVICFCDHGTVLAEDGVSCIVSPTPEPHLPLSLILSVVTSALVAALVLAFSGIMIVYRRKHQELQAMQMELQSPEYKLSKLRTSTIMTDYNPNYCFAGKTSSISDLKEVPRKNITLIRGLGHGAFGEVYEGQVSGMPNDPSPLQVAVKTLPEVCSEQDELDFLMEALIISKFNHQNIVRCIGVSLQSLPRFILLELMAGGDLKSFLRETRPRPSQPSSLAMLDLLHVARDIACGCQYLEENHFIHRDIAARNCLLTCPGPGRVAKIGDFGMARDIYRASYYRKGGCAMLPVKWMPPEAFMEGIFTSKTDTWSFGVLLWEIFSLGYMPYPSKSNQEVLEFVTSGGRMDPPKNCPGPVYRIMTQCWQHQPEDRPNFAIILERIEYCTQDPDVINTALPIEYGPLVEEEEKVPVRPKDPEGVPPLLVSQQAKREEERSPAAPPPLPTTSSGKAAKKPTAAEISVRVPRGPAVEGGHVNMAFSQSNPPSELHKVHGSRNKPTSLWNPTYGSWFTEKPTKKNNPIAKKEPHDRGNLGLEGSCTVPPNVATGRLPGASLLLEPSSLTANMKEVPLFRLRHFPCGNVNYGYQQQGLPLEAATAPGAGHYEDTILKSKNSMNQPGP

| IC50 (JAK2; JAK2 Kinase Inhibition) [nM] | IC50 (ALK; ALK Kinase Inhibition) [nM] | IC50 (JAK2; [1]) [nM] | IC50 (ALK; [2]) [nM] | Compound |
| --- | --- | --- | --- | --- |
| < 100 | 1000 to 10000 |  |  | CS(=O)(=O)c1ccc(-c2ccc3cnc(Nc4ccc5[nH]c(CN6CCN(CCO)CC6)nc5c4)nn23)cc1 [Example 1543, 2-(4-{5-[7-(4-Methanesulfonyl-phenyl)-pyrrolo[2,1-f][1,2,4]triazin-2-ylamino]-1H-benzimidazol-2-ylmethyl}-piperazin-1-yl)-ethanol] |
|  |  | < 100 | 100 to 1000 | CC(C)(C)NS(=O)(=O)c1cccc(-c2ccc3cnc(Nc4cccc(OCCN5CCOCC5)c4)nn23)c1 [Example 1001, N-tert-Butyl-3-{2-[3-(2-morpholin-4-yl-ethoxy)-phenylamino]-pyrrolo[2,1-f][1,2,4]triazin-7-yl}-benzenesulfonamide] |
|  |  | < 100 | 1000 to 10000 | COc1ccccc1-c1ccc2cnc(Nc3ccc4cn(CCN5CCOCC5)nc4c3)nn12 [Example 1350, [7-(2-Methoxy-phenyl)-pyrrolo[2,1-f][1,2,4]triazin-2-yl]-[2-(2-morpholin-4-yl-ethyl)-2H-indazol-6-yl]-amine] |
| < 100 | > 10000 |  |  | CN(C)S(=O)(=O)c1ccc(-c2ccc3cnc(Nc4ccc(N5CCCCC5)cc4)nn23)cc1 [Example 86, N,N-Dimethyl-4-[2-(4-piperidin-1-yl-phenylamino)-pyrrolo[2,1-f][1,2,4]triazin-7-yl]-benzenesulfonamide] |
|  |  | 100 to 1000 | < 100 | COc1ccccc1-c1ccc2cnc(Nc3ccc4c(c3OC)CN(C3CCN(C)CC3)C4)nn12 [Example 853, [4-Methoxy-2-(1-methyl-piperidin-4-yl)-2,3-dihydro-1H-isoindol-5-yl]-[7-(2-methoxy-phenyl)-pyrrolo[2,1-f][1,2,4]triazin-2-yl]-amine] |
| < 100 | < 100 |  |  | C[C@@H](O)CN1CCN(c2cccc(Nc3ncc4ccc(-c5cccc(Cl)c5)n4n3)c2)CC1 [Example 215, (R)-1-(4-{3-[7-(3-Chloro-phenyl)-pyrrolo[2,1-f][1,2,4]triazin-2-ylamino]-phenyl}-piperazin-1-yl)-propan-2-ol] |
|  |  | < 100 | 100 to 1000 | COc1ccccc1-c1ccc2cnc(Nc3ccc4c(c3)COCCN4C)nn12 [Example 618, [7-(2-Methoxy-phenyl)-pyrrolo[2,1-f][1,2,4]triazin-2-yl]-(1-methyl-1,2,3,5-tetrahydro-benzo[e][1,4]oxazepin-7-yl)-amine] |
|  |  | 100 to 1000 | < 100 | COc1cc2c(cc1Nc1ncc3ccc(-c4ccccc4N(C)S(C)(=O)=O)n3n1)CN(C)C2 [Example 809, N-{2-[2-(6-Methoxy-2-methyl-2,3-dihydro-1H-isoindol-5-ylamino)-pyrrolo[2,1-f][1,2,4]triazin-7-yl]-phenyl}-N-methyl-methanesulfonamide] |
| < 100 | 100 to 1000 |  |  | CN1CCN(c2cccc(Nc3ncc4ccc(-c5cccc(N6CCOCC6)c5)n4n3)c2)CC1 [Example 1392, [3-(4-Methyl-piperazin-1-yl)-phenyl]-[7-(3-morpholin-4-yl-phenyl)-pyrrolo[2,1-f][1,2,4]triazin-2-yl]-amine] |
| < 100 | 100 to 1000 |  |  | COc1ccc(OC)c(-c2ccc3cnc(Nc4ccc(N5CCN(C)CC5)cc4)nn23)c1 [Example 425, [7-(2,5-Dimethoxy-phenyl)-pyrrolo[2,1-f][1,2,4]triazin-2-yl]-[4-(4-methyl-piperazin-1-yl)-phenyl]-amine] |
| < 100 | < 100 |  |  | COc1ccc(Cl)cc1-c1ccc2cnc(Nc3cccc(N4CCN(CC(C)(C)O)CC4)c3)nn12 [Example 219, 1-(4-{3-[7-(5-Chloro-2-methoxy-phenyl)-pyrrolo[2,1-f][1,2,4]triazin-2-ylamino]-phenyl}-piperazin-1-yl)-2-methyl-propan-2-ol] |
| < 100 | < 100 |  |  | CC(C)(O)CN1CCN(c2ccc(Nc3ncc4ccc(-c5cccc(Cl)c5)n4n3)cc2)CC1 [Example 223, 1-(4-{4-[7-(3-Chloro-phenyl)-pyrrolo[2,1-f][1,2,4]triazin-2-ylamino]-phenyl}-piperazin-1-yl)-2-methyl-propan-2-ol] |
|  |  | 100 to 1000 | < 100 | COc1cc(C2CCN(CC(C)(C)O)CC2)ccc1Nc1ncc2ccc(-c3ccccc3OC)n2n1 [Example 865, 1-(4-{3-Methoxy-4-[7-(2-methoxy-phenyl)-pyrrolo[2,1-f][1,2,4]triazin-2-ylamino]-phenyl}-piperidin-1-yl)-2-methyl-propan-2-ol] |
|  |  | < 100 | < 100 | COc1cc(N2CCC(N3CCCN(C)CC3)CC2)ccc1Nc1ncc2ccc(-c3ccccc3OC)n2n1 [Example 781, {2-Methoxy-4-[4-(4-methyl-[1,4]diazepan-1-yl)-piperidin-1-yl]-phenyl}-[7-(2-methoxy-phenyl)-pyrrolo[2,1-f][1,2,4]triazin-2-yl]-amine] |
|  |  | < 100 | 100 to 1000 | Cn1cc(-c2ccc3cnc(Nc4ccc5c(c4)CCC(N4CCOCC4)CC5)nn23)cn1 (centres unmarked) [Example 1201, [7-(1-Methyl-1H-pyrazol-4-yl)-pyrrolo[2,1-f][1,2,4]triazin-2-yl]-(7-morpholin-4-yl-6,7,8,9-tetrahydro-5H-benzocyclohepten-2-yl)-amine] |
|  |  | < 100 | 100 to 1000 | COc1ccc(-c2ccc3cnc(Nc4ccc(C5CCN(CCO)CC5)cc4)nn23)cn1 [Example 671, 2-(4-{4-[7-(6-Methoxy-pyridin-3-yl)-pyrrolo[2,1-f][1,2,4]triazin-2-ylamino]-phenyl}-piperidin-1-yl)-ethanol] |
| < 100 | 100 to 1000 |  |  | COc1ccccc1-c1ccc2cnc(Nc3cccc(C(N)=O)c3)nn12 [Example 164, 3-[7-(2-Methoxy-phenyl)-pyrrolo[2,1-f][1,2,4]triazin-2-ylamino]-benzamide] |
| < 100 | < 100 |  |  | COc1ccccc1-c1ccc2cnc(Nc3ccc(N4CCC(C(=O)N5CCN(C)CC5)CC4)cc3)nn12 [Example 444, (1-{4-[7-(2-Methoxy-phenyl)-pyrrolo[2,1-f][1,2,4]triazin-2-ylamino]-phenyl}-piperidin-4-yl)-(4-methyl-piperazin-1-yl)-methanone] |
| < 100 | 1000 to 10000 |  |  | NC(=O)CN1CCC(c2ccc(Nc3ncc4ccc(-c5ncccn5)n4n3)cc2)CC1 [Example 1568, 2-{4-[4-(7-Pyrimidin-2-yl-pyrrolo[2,1-f][1,2,4]triazin-2-ylamino)-phenyl]-piperidin-1-yl}-acetamide] |
| < 100 | < 100 |  |  | CN1CCC2(CCc3cc(Nc4ncc5ccc(-c6cccc(NS(C)(=O)=O)c6)n5n4)ccc3O2)CC1 [Example 378] |
|  |  | 100 to 1000 | < 100 | COc1cc(CN2CCN(C)CC2)ccc1Nc1ncc2ccc(-c3ccccc3OC)n2n1 [Example 1252, [2-Methoxy-4-(4-methyl-piperazin-1-ylmethyl)-phenyl]-[7-(2-methoxy-phenyl)-pyrrolo[2,1-f][1,2,4]triazin-2-yl]-amine] |
|  |  | 100 to 1000 | 100 to 1000 | COc1cc(N2CCC(N3CCOCC3)CC2)ccc1Nc1ncc2ccc(-c3ccccc3[S+](C)[O-])n2n1 (centres unmarked) [Example 544, [7-(2-Methanesulfinyl-phenyl)-pyrrolo[2,1-f][1,2,4]triazin-2-yl]-[2-methoxy-4-(4-morpholin-4-yl-piperidin-1-yl)-phenyl]-amine] |
